Here are results for eleven compounds from patent US9624229B2, “Pyrimidine-2-amine compounds and their use as inhibitors of JAK kinases” (Rigel Pharmaceuticals, Inc., priority 2008, dated 2017).

SMILES strings stand for the structures.

Ba/F3 V617F cells, sequence (O60674 whole entry V617F): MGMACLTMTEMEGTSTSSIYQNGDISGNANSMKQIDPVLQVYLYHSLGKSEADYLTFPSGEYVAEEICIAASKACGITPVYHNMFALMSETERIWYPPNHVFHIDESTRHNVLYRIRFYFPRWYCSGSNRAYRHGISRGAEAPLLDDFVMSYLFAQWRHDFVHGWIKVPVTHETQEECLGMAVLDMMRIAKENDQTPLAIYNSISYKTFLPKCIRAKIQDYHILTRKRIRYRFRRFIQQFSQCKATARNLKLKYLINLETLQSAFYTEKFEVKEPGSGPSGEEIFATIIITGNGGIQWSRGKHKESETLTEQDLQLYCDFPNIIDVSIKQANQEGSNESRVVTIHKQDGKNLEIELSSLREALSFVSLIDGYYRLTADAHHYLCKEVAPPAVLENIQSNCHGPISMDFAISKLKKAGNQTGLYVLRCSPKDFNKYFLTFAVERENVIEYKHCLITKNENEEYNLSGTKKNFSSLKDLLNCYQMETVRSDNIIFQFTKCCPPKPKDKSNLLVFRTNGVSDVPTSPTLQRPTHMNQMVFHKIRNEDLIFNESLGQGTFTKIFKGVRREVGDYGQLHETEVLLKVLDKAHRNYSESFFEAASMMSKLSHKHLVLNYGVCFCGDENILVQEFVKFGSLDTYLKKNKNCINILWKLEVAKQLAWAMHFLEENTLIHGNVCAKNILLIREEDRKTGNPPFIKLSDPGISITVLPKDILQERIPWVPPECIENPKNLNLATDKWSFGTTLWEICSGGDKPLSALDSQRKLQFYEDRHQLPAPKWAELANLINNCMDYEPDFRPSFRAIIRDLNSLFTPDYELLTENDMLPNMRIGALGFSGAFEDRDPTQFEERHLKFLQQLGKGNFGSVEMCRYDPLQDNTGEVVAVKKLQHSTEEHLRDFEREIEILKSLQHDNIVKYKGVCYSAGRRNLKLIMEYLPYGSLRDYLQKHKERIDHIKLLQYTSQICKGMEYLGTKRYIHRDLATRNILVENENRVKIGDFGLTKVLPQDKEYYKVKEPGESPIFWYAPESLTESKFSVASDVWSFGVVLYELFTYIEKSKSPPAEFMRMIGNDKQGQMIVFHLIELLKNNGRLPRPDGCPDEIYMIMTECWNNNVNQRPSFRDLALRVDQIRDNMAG

The first assay addresses Ba/F3 V617F cells (Homo sapiens, UniProt O60674, V617F, cells depend on it). Briefly: Proliferation assay (Cell Titer-Glo, 72 h) utilizing Ba/F3 V617F cells. Conditions: Ba/F3 V617F cells, proliferation, level of activity given as class symbol, read-out: IC50 (the source's name). The assay is classed as cell-based, mouse. The method, boiled down:
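Ba/F3 V617F cells in RPMI/10% FBS, 1×10^5 cells/mL, exposed in duplicate to 3-fold serial compound dilutions (top 5 mM DMSO stock, diluted 1:250, added as 2× solution in 5% FBS medium) for 72 h at 37 °C. Viability by Cell Titer-Glo luminescence; IC50 reported.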
Background: ATP-based viability assays read luminescence as a measure of living cells.
As to `Cc1cc(Nc2nccc(-c3ccc4c(c3)OC(C)(C)C(=O)N4)n2)ccc1N1C[C@@H]2C[C@H]1CN2C` [compound 240, 4-(2,2-dimethyl-3-oxo-3,4-dihydro-2H-benzo[b][1,4]oxazin-7-yl)-N-(3-methyl-4-((1S,4S)-5-methyl-2,5-diazabicyclo[2.2.1]heptan-2-yl)phenyl)pyrimidin-2-amine], the GI50 was below 1000 nM. For `Cc1cc(Nc2nccc(-c3cnc4c(c3)CN3CCCC3C(=O)N4)n2)ccc1N1C[C@@H]2C[C@H]1CN2C` (stereo partly drawn) [compound 270, 4-(7,8,9,9a-tetrahydro-5H-pyrido[2,3-e]pyrrolo[1,2-a][1,4]diazepin-10(11H)-on-3-yl)-N-(3-methyl-4-((1S,4S)-5-methyl-2,5-diazabicyclo[2.2.1]heptan-2-yl)phenyl)pyrimidin-2-amine], the GI50 is below 1000 nM. As for `CS(=O)(=O)N1C[C@@H]2C[C@H]1CN2c1ccc(Nc2nccc(-c3ccc(N4CCOCC4)nc3)n2)cc1Cl` [compound 257, 4-(6-(morpholin-4-yl)pyridin-3-yl)-N-(3-chloro-4-((1S,4S)-5-(methylsulfonyl)-2,5-diazabicyclo[2.2.1]heptan-2-yl)phenyl)pyrimidin-2-amine], the GI50 is below 1000 nM.

Staying with this assay, now noted: Ba/F3 V617F cells, proliferation, level of activity to inhibit JAK2, read-out: IC50 (the source's name).
With `Cc1cc(Nc2nccc(-c3cnc4c(c3)OC(C)(C)C(=O)N4)n2)ccc1N1C[C@@H]2C[C@H]1CN2S(C)(=O)=O` [compound 29, 4-(2,2-dimethyl-3-oxo-3,4-dihydro-2H-pyrido[3,2-b][1,4]oxazin-7-yl)-N-(3-methyl-4-((1S,4S)-5-(methylsulfonyl)-2,5-diazabicyclo[2.2.1]heptan-2-yl)phenyl)pyrimidin-2-amine], the GI50 was below 1000 nM. Regarding `CN1C[C@@H]2C[C@H]1CN2c1ccc(Nc2nccc(-c3ccc(C(=O)Nc4ccccn4)cc3)n2)cc1F` [compound 133, 4-(4-((pyridin-2-yl)aminocarbonyl)phenyl)-N-(3-fluoro-4-((1S,4S)-5-methyl-2,5-diazabicyclo[2.2.1]heptan-2-yl)phenyl)pyrimidin-2-amine], the GI50 was 1000 to 10000 nM. Turning to `CCN(CC)c1nc(-c2ccnc(Nc3ccc(N4C[C@@H]5C[C@H]4CN5C)c(F)c3)n2)cs1` [compound 164, 4-(2-(diethylamino)thiazol-4-yl)-N-(3-fluoro-4-((1S,4S)-5-methyl-2,5-diazabicyclo[2.2.1]heptan-2-yl)phenyl)pyrimidin-2-amine], the GI50 is below 1000 nM.

For the compound `CN1C[C@@H]2C[C@H]1CN2c1ccc(Nc2nccc(-c3ccc(NCc4ccccc4)nc3)n2)cc1F` [compound 81, 4-(6-(benzylamino)pyridin-3-yl)-N-(3-fluoro-4-((1S,4S)-5-methyl-2,5-diazabicyclo[2.2.1]heptan-2-yl)phenyl)pyrimidin-2-amine], the GI50 is below 1000 nM. For `CN1C[C@H]2C[C@@H]1CN2c1ccc(Nc2nccc(-c3cnc4c(c3)OC(C)(C)C(=O)N4)n2)cc1F` [compound 73, 4-(2,2-dimethyl-3-oxo-3,4-dihydro-2H-pyrido[3,2-b][1,4]oxazin-7-yl)-N-(3-fluoro-4-((1R,4R)-5-methyl-2,5-diazabicyclo[2.2.1]heptan-2-yl)phenyl)pyrimidin-2-amine], the GI50 is below 1000 nM. For `Cc1cc(Nc2nccc(-c3ccc4nccn4c3)n2)ccc1N1CCN2CCC1C2` (centres unmarked) [compound 123, 4-(imidazo[1,2-a]pyridin-6-yl)-N-(3-methyl-4-(1,4-diazabicyclo[3.2.1]octan-4-yl)phenyl)pyrimidin-2-amine], the GI50 is below 1000 nM. As to `Cc1cc(Nc2nccc(-c3ccc(C(=O)Nc4ccccn4)cc3)n2)ccc1N1C[C@@H]2C[C@H]1CN2C` [compound 134, 4-(4-((pyridin-2-yl)aminocarbonyl)phenyl)-N-(3-methyl-4-((1S,4S)-5-methyl-2,5-diazabicyclo[2.2.1]heptan-2-yl)phenyl)pyrimidin-2-amine], the GI50 was below 1000 nM.

The assay is the same for the next values; noted with them: inhibition of JAK2 activity, proliferation of Ba/F3 V617F cells, read-out: IC50 (the source's name).
On to `Cc1cc(Nc2nccc(-c3ccc(N4CCOCC4)nc3)n2)cnc1N1C[C@@H]2C[C@H]1CN2C` [compound 66, 4-(6-(morpholin-4-yl)pyridin-3-yl)-N-(5-methyl-6-((1S,4S)-5-methyl-2,5-diazabicyclo[2.2.1]heptan-2-yl)pyridin-3-yl)pyrimidin-2-amine], for which the GI50 was in the range of 1000 to 10000 nM.
